Experimental data as given in the NIST ThermoML archive (doi:10.1021/je0301242).
Numbers after ± are expanded uncertainties.

Assay: excess molar enthalpy (molar enthalpy of mixing); xn = mol fraction of the nth substance listed
Conditions: 323.15 K, Liquid, Flow calorimetry

COC [dimethyl ether] + CCC
3060 kPa
Conditions | excess molar enthalpy [kJ/mol]
x2 = 0.0397 | 0.092 ± 0.002
x2 = 0.0803 | 0.179 ± 0.003
x2 = 0.1218 | 0.263 ± 0.004
x2 = 0.1643 | 0.34 ± 0.004
x2 = 0.2076 | 0.409 ± 0.005
x2 = 0.252 | 0.469 ± 0.006
x2 = 0.2974 | 0.52 ± 0.006
x2 = 0.3439 | 0.563 ± 0.007
x2 = 0.3914 | 0.597 ± 0.007
x2 = 0.4401 | 0.616 ± 0.007
x2 = 0.49 | 0.626 ± 0.007
x2 = 0.5411 | 0.625 ± 0.007
x2 = 0.5935 | 0.608 ± 0.007
x2 = 0.6472 | 0.575 ± 0.007
x2 = 0.7023 | 0.529 ± 0.006
x2 = 0.7587 | 0.458 ± 0.006
x2 = 0.8167 | 0.368 ± 0.005
x2 = 0.8762 | 0.255 ± 0.004
x2 = 0.9373 | 0.125 ± 0.002

C=CC [propene] + COC
3000 kPa
Conditions | excess molar enthalpy [kJ/mol]
x1 = 0.0427 | 0.024 ± 0.001
x1 = 0.0861 | 0.047 ± 0.002
x1 = 0.1301 | 0.065 ± 0.002
x1 = 0.1748 | 0.084 ± 0.002
x1 = 0.2203 | 0.101 ± 0.002
x1 = 0.2664 | 0.117 ± 0.002
x1 = 0.3133 | 0.128 ± 0.002
x1 = 0.361 | 0.139 ± 0.002
x1 = 0.4095 | 0.148 ± 0.003
x1 = 0.4587 | 0.154 ± 0.003
x1 = 0.5088 | 0.156 ± 0.003
x1 = 0.5597 | 0.155 ± 0.003
x1 = 0.6115 | 0.152 ± 0.003
x1 = 0.6641 | 0.145 ± 0.003
x1 = 0.7177 | 0.133 ± 0.002
x1 = 0.7722 | 0.116 ± 0.002
x1 = 0.8277 | 0.093 ± 0.002
x1 = 0.8841 | 0.067 ± 0.002
x1 = 0.9415 | 0.033 ± 0.001
